Measurements as given in patent US9700525B2, “Continuous local slow-release of therapeutics for head and neck problems and upper aerodigestive disorders” (Board of Supervisors of Louisiana State University and …, priority 2008, dated 2017).

Columns and labels:
[1] = test system: NFκB and Akt/mTOR pathways; assay: Modulation of NFκB and Akt/mTOR pathways in cell lines (western blot); assay type: cell-based
[2] = test system: normal fibroblast cell line CCL110; assay: Effect on proliferation of normal fibroblast cell line; assay type: cell-based
[3] = test system: tumor cells; assay: Chemoprevention model: pre-treatment before tumor cell injection, tumor volumes; assay type: in vivo, Balb/c nu/nu mice; details: pre-treated 4 days prior to injecting tumor cells
Method: Balb/c nu/nu mice were randomized into treatment groups. […] Tumors were measured over approximately three weeks. […] ANOVA analysis. […] This also points to its role as a chemopreventive agent rather than a therapeutic agent.

[4] = test system: DMBA-induced oral tumors; details: 10 μmol topically 3 times/week for 24 weeks; cited from earlier work
[5] = test system: prostate cancer xenograft; details: p.o. gavage 5 mg/day, 5 days/week for 4 weeks; cited from earlier work
[6] = test system: TPA-induced tumors; details: topical application of 10 μmol twice weekly; cited from earlier work
[7] = following oral administration; cited from earlier work
[8] = test system: HNSCC cell lines; assay: Inhibition of cell proliferation in HNSCC cell lines; assay type: cell-based
Description: While curcumin can be used to treat these cancers, other compounds that act on these pathways may also be useful in treating these cancers and it should be readily recognized that such compounds could also be delivered by including in the formulations described herein.

[9] = test system: SCC40 xenografts; assay: Akt/mTOR pathway markers in SCC40 xenografts of treated mice; assay type: in vivo; details: mice with SCC40 xenografts treated with curcumin
[10] = test system: mTOR pathway markers; details: tumors and PBMCs of HNSCC patients; cited from earlier work
[11] = test system: Akt/mTOR pathway; assay: Model of minimal residual disease; assay type: in vivo

**Q.** What does the source list for `COc1cc(/C=C/C(=O)CC(=O)/C=C/c2ccc(O)c(OC)c2)ccc1O` [curcumin]?
**A.** change in pNFκB ([1]; PCI15a cells, 10 μM, 24 and 48 hours): no change; change in pAkt ([1]; PCI15a cells, 10 μM, 48 hours): down-regulated; change in pS6 downstream of mTOR ([1]; PCI15a cells, 10 μM, 48 hours): down-regulated; change in the Akt/mTOR pathway ([1]; SCC40 cells, 10 μM): no change; change in pNFκB ([1]; SCC40 cells, 10 μM, 48 hours): down-regulation; modulation of the Akt/mTOR pathway ([1]; SCC066 cells, 10 μM): did not show any modulation; change in pNFκB or Akt/mTOR ([1]; normal fibroblast cell line CCL110, 10 μM): no decrease; dose required to see effects [2]: 20 to 40 µM; difference in tumor volumes vs control (vehicle treated) ([3]; 10 mg): no significant difference; difference in tumor volumes vs control (vehicle treated) ([3]; 15 mg, about three weeks): statistically significant difference; reduction of the number of DMBA-induced oral tumors [4]: ~40%; inhibition of growth of prostate cancer xenograft [5]: ~50%; inhibition of the number of tumors per mouse [6]: 98%; bioavailability [7]: low bioavailability; growth inhibitory effect ([8]; all 10 HNSCC cell lines tested to date): growth inhibitory effects; growth inhibitory effect ([8]; three HNSCC cell lines, 10 μM, 48 hours): significant growth inhibitory effects; concentration giving consistent inhibition of cell proliferation ([8]; variety of HNSCC cell lines, in vitro): less than 10 μM; change in pAkt [9]: significant decrease; change in pS6 [9]: significant decrease

**Q.** With `CO[C@H]1C[C@@H]2CC[C@@H](C)[C@@](O)(O2)C(=O)C(=O)N2CCCC[C@H]2C(=O)O[C@H]([C@H](C)C[C@@H]2CC[C@@H](OC(=O)C(C)(CO)CO)[C@H](OC)C2)CC(=O)[C@H](C)/C=C(\C)[C@@H](O)[C@@H](OC)C(=O)[C@H](C)C[C@H](C)/C=C/C=C/C=C/1C` [CCI-779, temsirolimus] as the compound, how does the “modulation of mTOR pathway markers” value [10] read?
**A.** modulation of these markers

**Q.** What about the survival [11] of the same compound?
**A.** improve survival

**Q.** And the tumor formation [11]?
**A.** inhibit tumor formation
